Data reported in ChEMBL document CHEMBL3102727, “Conformationally constrained ortho-anilino diaryl ureas: discovery of 1-(2-(1'-neopentylspiro[indoline-3,4'-piperidine]-1-yl)phenyl)-3-(4-(trifluoromethoxy)phenyl)urea, a potent, selective, and bioavailable P2Y1 antagonist” (J Med Chem, 2013).
Values after ≈ are worked out from the molar mass of the structure shown. Active and inactive are the calls of the source. No cut-off for these calls is given here.

How the values were obtained:
[1] = Aqueous solubility of the crystalline form of compound in phosphate buffer at pH 6.5; format: physicochemical
[2] = Partition coefficient, log P of the compound at pH 7 by reversed-phase HPLC method; format: physicochemical; conditions: octanol/water
P2Y purinoceptor 1 [3] = target: T1, P2Y purinoceptor 1 (Homo sapiens, UniProt P47900); experiment: Displacement of [33P]-2MeS-ADP from human P2Y1 receptor expressed in HEK293 cells after 1 hr by scintillation counting analysis; format: cell-based
P2Y purinoceptor 1 [4] = target: T1, P2Y purinoceptor 1; experiment: Antagonist activity at P2Y1 receptor in platelet-enriched human plasma assessed as 2.5 uM ADP-induced platelet aggregation preincubated for 1 min followed by ADP induction measured at 5 mins by aggregometric analysis
[5] = Aqueous solubility of the amorphous form of compound in phosphate buffer at pH 6.5; format: physicochemical
[6] = Metabolic stability in rat liver microsomes assessed as compound remaining after 10 mins; format: ADME; conditions: read-out: Stability
[7] = Metabolic stability in human liver microsomes assessed as compound remaining after 10 mins; format: ADME; conditions: read-out: Stability
P2Y purinoceptor 1 [8] = target: T1, P2Y purinoceptor 1; experiment: Antagonist activity at P2Y1 receptor in washed human platelets assessed as 1 uM 2-methylthio-ADP-induced calcium flux by FLIPR assay; format: functional
[9] = Metabolic stability in mouse liver microsomes assessed as compound remaining after 10 mins; format: ADME, Microsome; conditions: read-out: Stability

T1 sequence (P47900 whole entry): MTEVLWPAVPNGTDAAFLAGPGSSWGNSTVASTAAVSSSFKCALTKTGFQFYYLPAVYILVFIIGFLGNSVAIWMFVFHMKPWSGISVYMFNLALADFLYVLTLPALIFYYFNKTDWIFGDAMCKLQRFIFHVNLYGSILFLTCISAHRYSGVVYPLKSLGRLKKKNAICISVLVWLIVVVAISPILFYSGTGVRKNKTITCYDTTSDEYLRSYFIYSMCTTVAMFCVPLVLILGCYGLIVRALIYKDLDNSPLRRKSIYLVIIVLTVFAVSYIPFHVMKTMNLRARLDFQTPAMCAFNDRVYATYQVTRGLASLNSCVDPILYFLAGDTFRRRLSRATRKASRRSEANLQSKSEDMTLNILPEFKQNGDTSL

Compound | solubility [1] [µg/mL] | logP [2] | Ki (P2Y purinoceptor 1 [3]) [nM] | Activity (P2Y purinoceptor 1 [4]) | IC50 (P2Y purinoceptor 1 [3]) [nM] | solubility [5] [µg/mL] | remaining at 10 min [6] [%] | remaining at 10 min [7] [%] | IC50 (P2Y purinoceptor 1 [8]) [nM] | remaining at 10 min [9] [%]
COC(=O)N1CCC2(CC1)CN(c1ccccc1NC(=O)Nc1ccc(OC(F)(F)F)cc1)c1ccccc12 | 1 (≈ 1.85 µM) | 6 | 13.3 | – | – | – | – | – | – | –
O=C(Nc1ccc(OC(F)(F)F)cc1)Nc1cccnc1-c1cc2ccccc2[nH]1 | – | – | – | inactive | 227 | – | – | – | – | –
CC(C)(C)CN1CCC2(CC1)CN(c1ccccc1NC(=O)Nc1ccc(OC(F)(F)F)cc1)c1cnccc12 | – | > 6 | 11.5 | – | – | 25 (≈ 45.2 µM) | 73 | 67 | 10.7 | –
CC1(C)CCN(c2ccccc2NC(=O)Nc2ccc(OC(F)(F)F)cc2)c2ccccc21 | – | > 6.2 | 7.3 | – | – | – | 6 | 51 | – | 63
